In publication PMC10926604, “Discovery of a novel small molecule as CD47/SIRPα and PD-1/PD-L1 dual inhibitor for cancer immunotherapy” (Cell Communication and Signaling : CCS, 2024):
Entries after “also recorded” stand apart in the source; their conditions may differ.

How the values were obtained:
human CD47/SIRPα = target: T1, human CD47/SIRPα (Homo sapiens, UniProt P78324); assay: Cell-based blocking assay, human CD47/SIRPα; conditions: CHO-K1-hCD47 cells, SIRPα-Fc, flow cytometry; read-out: IC50 for blocking human CD47/SIRPα interaction
T1 construct: purchased ACRO Biosystems SIA-H5251; host or cells: CHO-K1-hCD47 cells carry the partner (lentiviral transfection)
T1 sequence (P78324 31-370 limits assumed): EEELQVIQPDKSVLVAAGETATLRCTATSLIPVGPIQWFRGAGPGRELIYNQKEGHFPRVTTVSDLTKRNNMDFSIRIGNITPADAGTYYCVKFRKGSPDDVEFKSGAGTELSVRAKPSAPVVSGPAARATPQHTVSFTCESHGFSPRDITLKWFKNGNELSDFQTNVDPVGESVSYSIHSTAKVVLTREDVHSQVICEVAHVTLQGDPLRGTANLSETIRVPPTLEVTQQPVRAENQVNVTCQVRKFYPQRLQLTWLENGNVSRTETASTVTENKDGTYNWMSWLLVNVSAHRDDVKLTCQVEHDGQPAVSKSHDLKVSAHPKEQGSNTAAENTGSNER
Protocol: The CHO-K1 cell line with stable expression of CD47 and PD-1 was constructed previously by our group. SMC18 was serially diluted using PBS 7.2 (containing 1% DMSO) and incubated with 100 ng of SIRPα-Fc protein (human: SIA-H5251, mouse: SIA-M5258, ACRO Biosystems) and 50 ng of PD-L1-Fc protein (human: 10,084-H02H, mouse: 50,010-M02H, Sino Biological) on ice for 30 min. The mixture was then added to the corresponding CHO-K1-CD47 or CHO-K1-PD-1 cells and further incubated on ice for 30 min. Afterward, PE-conjugated anti-human IgG (Fc) antibody (A18272, eBioscience) was added. The mean fluorescence intensity (MFI) of the cells was detected using flow cytometry (BD FACSCalibur) and the blocking efficiency was calculated.

hTIM-3/hGal-9 = hTIM-3/hGal-9 (Homo sapiens, UniProt O00182+Q8TDQ0); assay: Blockade of other immune checkpoint pathways, TIM-3/Gal-9; format: cell-based; conditions: Fig. S2
Sequence of hTIM-3/hGal-9 (Q8TDQ0 22-301): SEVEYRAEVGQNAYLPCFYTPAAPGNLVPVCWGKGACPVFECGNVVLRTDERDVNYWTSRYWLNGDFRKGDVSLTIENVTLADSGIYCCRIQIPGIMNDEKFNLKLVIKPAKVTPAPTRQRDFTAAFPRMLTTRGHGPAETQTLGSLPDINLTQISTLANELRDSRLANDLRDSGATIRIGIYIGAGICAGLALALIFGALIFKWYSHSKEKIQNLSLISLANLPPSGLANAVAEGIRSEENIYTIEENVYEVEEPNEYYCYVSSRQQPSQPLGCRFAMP
Sequence of hTIM-3/hGal-9 (O00182 whole entry): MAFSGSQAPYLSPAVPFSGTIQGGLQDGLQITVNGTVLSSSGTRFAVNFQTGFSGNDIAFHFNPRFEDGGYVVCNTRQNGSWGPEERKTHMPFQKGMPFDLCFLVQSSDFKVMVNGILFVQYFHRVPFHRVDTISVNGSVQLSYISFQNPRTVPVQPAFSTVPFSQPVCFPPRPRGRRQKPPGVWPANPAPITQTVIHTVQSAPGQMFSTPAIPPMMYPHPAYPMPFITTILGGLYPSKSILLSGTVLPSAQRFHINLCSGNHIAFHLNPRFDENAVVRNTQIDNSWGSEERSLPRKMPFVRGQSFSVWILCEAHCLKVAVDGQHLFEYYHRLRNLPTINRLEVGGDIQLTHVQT

MC38 cells = assay: MTT assay, MC38 cells; format: cell-based, mouse; conditions: 100 µM; 24 h, 48 h, 72 h
Protocol: MC38 and B16-OVA cells were seeded into 96-well plates at a density of 3,000 cells per well, respectively and allowed to adhere overnight. SMC18 was added to the cells and incubated for 24 h, 48 h and 72 h, respectively. Cell viability was measured by adding MTT (3-(4, 5-dimethyl-2-thiazolyl)-2,5-diphenyl-2-H-tetrazolium bromide, 298–93-1, Sigma) solution and incubating for 4 h. The cells were then lysed by shaking with DMSO. The absorbance values at 490 nm were measured using a multi-mode microplate reader (Molecular Devices, SpectraMax iD5).
Fig S3. The Effect of SMC18 on Tumor Cell Proliferation in vitro. MC38 cells (3000 cells/well) and B16-OVA cells (3000 cells/well) were seeded in flat-bottomed 96-well plates and allowed to adhere overnight. Subsequently, the cells were starved for 8 hours in serum-free medium. SMC18 was diluted in complete culture medium and added to the wells, following which the cells were incubated for 24 h, 48 h, and 72 h. After the designated incubation periods, 20 μL of MTT solution was added to each well. Four hours later, the supernatant was aspirated, and 150 μL of DMSO was added to each well to dissolve the MTT formazan product. The plates were then shaken for 10 minutes, and absorbance was measured at 490 nm using a microplate reader.

[1] = Mouse blood indicators and H&E staining of major organs; format: in vivo; conditions: for ALT: NS 45.13 ± 1.55; for AST: NS 187.4 ± 25.5
Protocol: Peripheral blood samples were collected from mice that received intravenous injections of SMC18 (2 or 6 mg/kg) for 2 weeks. The samples were analyzed for whole blood hematological test to detect the indicators of anemia and liver injury. For H&E staining analysis, tumors and the major organs (heart, liver, spleen, lung and kidney) were harvested from tumor-bearing mice. The tissues were then fixed with 4.0% paraformaldehyde for paraffin embedding and processed by H&E staining for histological evaluation. Immunostaining of tumor tissue sections was conducted utilizing anti-mouse CD8α andtibody (53–6.7, eBioscience).

## Cc1cc(C)cc(NS(=O)(=O)c2ccc3[nH]cc(C(=O)NCCc4ccccc4)c(=O)c3c2)c1 [SMC18]
Human CD47/SIRPα
  IC50: 17.8 ± 8.2 µM
hTIM-3/hGal-9
  inhibitory effect on hTIM-3/hGal-9 pathway: no blocking effect; also recorded: did not impede
MC38 cells
  toxicity to MC38 cells (MTT): non-toxic
[1]; 2 mg/kg daily for 14 days
  ALT: 56.57 ± 13.3 U/L
  AST: 196.4 ± 20.7 U/L
[1]; 6 mg/kg daily for 14 days
  ALT: 46.83 ± 7.74 U/L
  AST: 191.1 ± 23.3 U/L
[1]; 2 or 6 mg/kg daily for 14 days
  content of alanine aminotransferase (ALT) vs control group: no significant differences
  content of aspartate aminotransferase (AST) vs control group: no significant differences
  levels of erythrocytes (RBC count) vs control group: No significant differences
  levels of hemoglobin vs control group: No significant differences
[1]; tumor-bearing mice treated with SMC18
  H&E staining of major organs (heart, liver, spleen, lung, kidney): no significant damage
